Measurements as given in patent publication US20070014845A1, “Liposomal delivery vehicle for hydrophobic drugs” (priority 2005, published 2007).

Tests used:
[1] = cited from earlier work
[2] = Solubility of RWJ-416457 in hydroxypropyl-β-cyclodextrin and sulfobutylether-β-cyclodextrin solutions (HPLC); assay type: physicochemical
Procedure: Various liposomal formulations were prepared to perform supporting and illustrative studies. […] The solubility of the drug in the cyclodextrin solutions was determined.
The solubility of an antimicrobial oxazolidinone drug identified as RWJ-416457 in 40 w/v % hydroxylpropyl-β-cyclodextrin and in 20 w/v % sulfobutylether-β-cyclodextrin under various conditions of pH, temperature, and incubation time was determined as follows. About 15 mgs of drug was added to 5 mL of each cyclodextrin solution followed by incubation under one of three conditions: (1) with stirring at 45° C. for 2 hours; (2) with stirring at 45° C. for 2 hours followed by stirring at room temperature (25° C.) for 3 days; or (3) with stirring at room temperature (25° C.) for 3 days. After incubation, any non-solubilized drug crystals were removed either by centrifugation using a bench top centrifuge at 3000 rpm or by filtration using a hand-held syringe with a filter with 0.2 μm pore size. The drug concentration of the supernatant or the filtrate was then determined by high performance liquid chromatography (HPLC).

[3] = Drug concentration of filtered drug/cyclodextrin hydration solutions (HPLC); assay type: physicochemical; conditions: for drug concentration of filtered cyclodextrin solution: 10 mM histidine, 15 mM NaCl, pH 6.8, incubated 45° C. for 2 hours; for final drug concentration assayed by HPLC: 50 w/v % hydroxypropyl-β-cyclodextrin
Procedure: A similar solution containing 30% cyclodextrin was prepared by dissolving 30 g of hydroxypropyl-β-cyclodextrin in a 100 mL of water. The solution also contained 10 mM histidine and 15 mM NaCl. The final osmolality was 451 mOsm/kg (Wescor Osmometer) and the pH was 6.8. Drug (RWJ-425457) was added to the cyclodextrin solution, incubated (45° C. for 2 hours), and filtered, to yield a drug concentration of 9.9 mg/mL.
A similar solution containing 20% cyclodextrin was prepared by dissolving 20 g of hydroxypropyl-β-cyclodextrin in a 100 mL of buffer (10 mM histidine and 15 mM NaCl). The final osmolality was 199 mOsm/kg (Wescor Osmometer) and the pH was 6.8. Drug (RWJ-425457) was added to the cyclodextrin solution, incubated (45° C. for 2 hours) and filtered, to yield a drug concentration of 4.8 mg/mL.
A liposome formulation with no cholesterol, formulation no. 11, was also prepared as follows. A lipid mixture of HSPC/mPEG-DSPE 95:5 mol/mol (11.3 g HSPC and 2.1 g mPEG-DSPE) was solubilized in 10 mL ethanol at about 65 ° C. A 50% hydroxypropyl-β-cyclodextrin solution was made by solubilizing 50 g of the cyclodextrin in a total volume of 100 mL water. The osmolality was 720 mOsm/kg and the pH was 7.4. In a separate container 1.004 g of drug (RWJ416457) was placed in 100 mL of the 50 w/v % cyclodextrin solution. The mixture was stirred for 1 hour at 45° C. and then 3 hours at room temperature followed by filtration to removw any un-dissolved drug in the solution. The final drug concentration assayed by HPLC was 7.58 mg/mL and the osmolality of the hydration medium was 771 mOsm/kg. The lipid solution was then mixed with 90 mL of the drug/cyclodextrin solution (pre-warmed to 65° C.) followed by stirring at 65° C. for 1 hour to form a suspension of liposomes, identified as formulation no. 11.
A 50% hydroxypropyl-β-cyclodextrin solution was made by solubilizing 50.0 g of the cyclodextrin in a total volume of 100 mL water. The final osmolality was 720 mOsm/kg (Wescor Osmometer) and the pH was 7.4. In a separate container 1.004 g of drug (RWJ416457) was placed in 100 mL of the 50 w/v % cyclodextrin solution. The mixture was stirred for 4 hours at room temperature followed by filtration to remove any drug in the external solution. The final drug concentration assayed by HPLC was 7.58 mg/mL and osmolality was 771 mOsm/kg.

## OC[C@H]1O[C@@H]2O[C@H]3[C@H](O)[C@@H](O)[C@@H](O[C@H]4[C@H](O)[C@@H](O)[C@@H](O[C@H]5[C@H](O)[C@@H](O)[C@@H](O[C@H]6[C@H](O)[C@@H](O)[C@@H](O[C@H]7[C@H](O)[C@@H](O)[C@@H](O[C@H]8[C@H](O)[C@@H](O)[C@@H](O[C@H]9[C@H](O)[C@@H](O)[C@@H](O[C@H]%10[C@H](O)[C@@H](O)[C@@H](O[C@H]1[C@H](O)[C@H]2O)O[C@@H]%10CO)O[C@@H]9CO)O[C@@H]8CO)O[C@@H]7CO)O[C@@H]6CO)O[C@@H]5CO)O[C@@H]4CO)O[C@@H]3CO [δ-cyclodextrin]
[1]; at 25° C.
  water solubility (at 25° C., g/100 mL): 8.19 g/100 mL

## CC(=O)NC[C@H]1CN(c2ccc(N3Cc4cn(C)nc4C3)c(F)c2)C(=O)O1 [RWJ-416457]
[2]; Sample 1, pH 8.54, HP-β-CD 40%, 3 days RT, Filter
  Solubility of RWJ-416457: 8130 µg/mL
[2]; Sample 2, pH 8.54, HP-β-CD 40%, 45° C. 2 hrs + 3 days RT, Filter
  Solubility of RWJ-416457: 9460 µg/mL
[2]; Sample 2, pH 8.54, HP-β-CD 40%, 45° C. 2 hrs, Centrifuge
  Solubility of RWJ-416457: 9370 µg/mL
[2]; Sample 2, pH 8.54, HP-β-CD 40%, 45° C. 2 hrs, Filter
  Solubility of RWJ-416457: 9260 µg/mL
[2]; Sample 3, pH 3.21, HP-β-CD 40%, 3 days RT, Filter
  Solubility of RWJ-416457: 7600 µg/mL
[2]; Sample 4, pH 3.21, HP-β-CD 40%, 45° C. 2 hrs + 3 days RT, Filter
  Solubility of RWJ-416457: 9080 µg/mL
[2]; Sample 4, pH 3.21, HP-β-CD 40%, 45° C. 2 hrs, Centrifuge
  Solubility of RWJ-416457: 9230 µg/mL
[2]; Sample 4, pH 3.21, HP-β-CD 40%, 45° C. 2 hrs, Filter
  Solubility of RWJ-416457: 9160 µg/mL
[2]; Sample 5, pH 4.58, HP-β-CD 40%, 3 days RT, Filter
  Solubility of RWJ-416457: 7210 µg/mL
[2]; Sample 6, pH 4.58, HP-β-CD 40%, 45° C. 2 hrs + 3 days RT, Filter
  Solubility of RWJ-416457: 9100 µg/mL
[2]; Sample 6, pH 4.58, HP-β-CD 40%, 45° C. 2 hrs, Centrifuge
  Solubility of RWJ-416457: 9170 µg/mL
[2]; Sample 6, pH 4.58, HP-β-CD 40%, 45° C. 2 hrs, Filter
  Solubility of RWJ-416457: 9160 µg/mL
[2]; Sample 7, pH 6.94, SBE-β-CD 20%, 45° C. 2 hrs + 3 days RT, Filter
  Solubility of RWJ-416457: 4450 µg/mL
[2]; Sample 7, pH 6.94, SBE-β-CD 20%, 45° C. 2 hrs, Centrifuge
  Solubility of RWJ-416457: 4750 µg/mL
[2]; Sample 7, pH 6.94, SBE-β-CD 20%, 45° C. 2 hrs, Filter
  Solubility of RWJ-416457: 4550 µg/mL
[2]; in 20% sulfobutylether-β-cyclodextrin (summary of Example 1A)
  drug solubility: above 4.5 mg/mL
[2]; in 20 w/v % sulfobutylether-β-cyclodextrin at 45° C.
  solubility: about 4.5 mg/mL
[2]; in 40 w/v % hydroxypropyl-β-cyclodextrin (summary of Example 1A)
  drug solubility: above 9 mg/mL
[2]; in 40 w/v % hydroxypropyl-β-cyclodextrin at 45° C.
  solubility: about 9.1 mg/mL
[2]; in 40 w/v % hydroxypropyl-β-cyclodextrin at room temperature
  solubility: about 7.6 mg/mL
[3]; 20% hydroxypropyl-β-cyclodextrin
  drug concentration of filtered cyclodextrin solution: 4800 µg/mL
[3]; 30% hydroxypropyl-β-cyclodextrin
  drug concentration of filtered cyclodextrin solution: 9900 µg/mL
[3]; stirred 1 hour at 45° C. then 3 hours at room temperature
  final drug concentration assayed by HPLC: 7.58 mg/mL
[3]; stirred 4 hours at room temperature
  final drug concentration assayed by HPLC: 7.58 mg/mL

## Randomly Methylated β-cyclodextrin
[1]
  Solubility in water: >500000 µg/mL

## β-Cyclodextrin sulfobutyl ether sodium salt
[1]
  Solubility in water: >500000 µg/mL

## 2-Hydroxypropyl-γ-cyclodextrin
[1]
  Solubility in water: >500000 µg/mL

## 2-Hydroxypropyl-β-cyclodextrin
[1]
  Solubility in water: >600000 µg/mL
